Laboratory results: EPA's ToxValDB 9.5 (doi:10.2903/j.efsa.2013.2923)

Tests used:
Neovison vison = details: reproduction developmental; reproduction
Oncorhynchus mykiss = details: acute; mortality
Pontoscolex corethrurus = details: acute; mortality
Apis mellifera = details: acute, mortality
Mus musculus = details: acute; oral; mortality
Rattus norvegicus = details: reproduction developmental; mortality
Daphnia magna = details: chronic/long-term
Oryctolagus sp. = details: reproduction developmental; mortality
Scenedesmus quadricauda = details: acute

## [I-].[K+] [Potassium iodide]
Neovison vison
  NOAEL: 0.5 mg/kg-day
Oncorhynchus mykiss
  LC50: 2190 µg/mL
Pontoscolex corethrurus
  LC50: > 12.5 mg/kg
Bird; acute, oral, unspecified, mortality
  LD50: > 1180 mg/kg-day
Bird; reproductive, reproduction
  NOEC: 0.69 mg/kg-day
Bird; short-term, oral, feed, mortality
  LC50: > 258 mg/kg-day
Apis mellifera; dermal
  LD50: > 0.78 µg/piece
Apis mellifera; oral, unspecified
  LD50: > 2.4 µg/piece
Mus musculus
  LD50: 1860 mg/kg
Rattus norvegicus
  NOAEL: 0.5 mg/kg-day
Daphnia magna
  NOEC: 0.25 mg/L
Oryctolagus sp.
  NOAEL: 0.5 mg/kg-day
Scenedesmus quadricauda
  NOEC: 1310 mg/L
